# Assay results from EP4813993A1, “COMPOUND, PREPARATION METHOD THEREFOR, AND USE THEREOF” (Sichuan Kelun Pharmaceutical Research Institute Co., Ltd., priority 2023, dated 2025).
# Molecular target: T1, Nav1.8 channels (Homo sapiens, UniProt Q9Y5Y9)
# T1 construct: expressed in transfected cells
# Assay: Manual patch-clamp, current of stably overexpressed Nav1.8 channels (resting state voltage program)
# Type: cell-based
# Settings: not given
# Protocol: Experimental Example 1: Effects of test substances on current of stably overexpressed Nav1.8 channels monitored via manual patch-clamp technique
# Test compounds were dissolved in dimethyl sulfoxide (DMSO).
# The extracellular fluid was as follows: 140 mM NaCl, 3.5 mM KCl, 1 mM MgCl2•6H2O, 2 mM CaCl2•2H2O, 10 mM D-Glucose, 10 mM HEPES, 1.25 mM NaH2PO4•2H2O; the pH was adjusted to 7.4 with NaOH. The intracellular fluid was as follows: 50 mM CsCl, 10 mM NaCl, 10 mM HEPES, 60 mM CsF, 20 mM EGTA; the pH was adjusted to 7.2 with CsOH.
# 2. Experimental materials and instruments
# • 1) patch-clamp amplifier: EPC 10 (HEKA) • 2) micromanipulator: MP225 (Sutter Instrument) • 3) inverted microscope: MF53 (Mshot) • 4) micropipette puller: P97 (Sutter Instrument) • 5) capillary glass tube: BF150-86-10 (Sutter Instrument)
# 3. Experimental procedures
# • 1) After the compounds were prepared into solutions with specified concentrations, the solutions were sequentially added to the pipeline of the drug delivery system and labeled. • 2) The cell climbing coverslip was placed in the recording chamber, the appropriate cells were selected under the inverted microscope, and the position of the drug delivery tip was adjusted. • 3) A capillary glass tube was pulled into a suitable recording electrode using the micropipette puller, and then the electrode filled with the intracellular fluid was mounted in the microelectrode holder. The micromanipulator was adjusted under the inverted microscope to allow the recording electrode to contact the cell, and negative pressure was applied to the electrode to form a high-resistance seal. At this time, fast capacitance compensation was performed, and then the application of negative pressure was continued to break the cell membrane, forming a whole-cell recording mode. Finally, slow capacitance compensation was performed, and related parameters were recorded. • 4) After the cell current stabilized, administration was started. Each concentration of the drug was applied for five minutes or until the current stabilized before proceeding to monitor the next concentration. The drug solutions were administered via gravity-fed delivery, flowing through the recording chamber to act on the cells in an ascending order of concentration (from low to high). A peristaltic pump was employed for solution exchange in the recording process.
# 4 Test voltage program (resting state) and results
# After the formation of the whole-cell seal, the cell voltage was clamped at -120 mV, followed by depolarization to 0 mV using a square-wave pulse with a duration of 50 ms to elicit Nav1.8 currents. This procedure was repeated every 20 s to monitor the maximum current induced by the square wave. After the current stabilized, the test compounds were administered. Once the response stabilized, the intensity of the current block was calculated.
# T1 sequence (Q9Y5Y9 whole entry): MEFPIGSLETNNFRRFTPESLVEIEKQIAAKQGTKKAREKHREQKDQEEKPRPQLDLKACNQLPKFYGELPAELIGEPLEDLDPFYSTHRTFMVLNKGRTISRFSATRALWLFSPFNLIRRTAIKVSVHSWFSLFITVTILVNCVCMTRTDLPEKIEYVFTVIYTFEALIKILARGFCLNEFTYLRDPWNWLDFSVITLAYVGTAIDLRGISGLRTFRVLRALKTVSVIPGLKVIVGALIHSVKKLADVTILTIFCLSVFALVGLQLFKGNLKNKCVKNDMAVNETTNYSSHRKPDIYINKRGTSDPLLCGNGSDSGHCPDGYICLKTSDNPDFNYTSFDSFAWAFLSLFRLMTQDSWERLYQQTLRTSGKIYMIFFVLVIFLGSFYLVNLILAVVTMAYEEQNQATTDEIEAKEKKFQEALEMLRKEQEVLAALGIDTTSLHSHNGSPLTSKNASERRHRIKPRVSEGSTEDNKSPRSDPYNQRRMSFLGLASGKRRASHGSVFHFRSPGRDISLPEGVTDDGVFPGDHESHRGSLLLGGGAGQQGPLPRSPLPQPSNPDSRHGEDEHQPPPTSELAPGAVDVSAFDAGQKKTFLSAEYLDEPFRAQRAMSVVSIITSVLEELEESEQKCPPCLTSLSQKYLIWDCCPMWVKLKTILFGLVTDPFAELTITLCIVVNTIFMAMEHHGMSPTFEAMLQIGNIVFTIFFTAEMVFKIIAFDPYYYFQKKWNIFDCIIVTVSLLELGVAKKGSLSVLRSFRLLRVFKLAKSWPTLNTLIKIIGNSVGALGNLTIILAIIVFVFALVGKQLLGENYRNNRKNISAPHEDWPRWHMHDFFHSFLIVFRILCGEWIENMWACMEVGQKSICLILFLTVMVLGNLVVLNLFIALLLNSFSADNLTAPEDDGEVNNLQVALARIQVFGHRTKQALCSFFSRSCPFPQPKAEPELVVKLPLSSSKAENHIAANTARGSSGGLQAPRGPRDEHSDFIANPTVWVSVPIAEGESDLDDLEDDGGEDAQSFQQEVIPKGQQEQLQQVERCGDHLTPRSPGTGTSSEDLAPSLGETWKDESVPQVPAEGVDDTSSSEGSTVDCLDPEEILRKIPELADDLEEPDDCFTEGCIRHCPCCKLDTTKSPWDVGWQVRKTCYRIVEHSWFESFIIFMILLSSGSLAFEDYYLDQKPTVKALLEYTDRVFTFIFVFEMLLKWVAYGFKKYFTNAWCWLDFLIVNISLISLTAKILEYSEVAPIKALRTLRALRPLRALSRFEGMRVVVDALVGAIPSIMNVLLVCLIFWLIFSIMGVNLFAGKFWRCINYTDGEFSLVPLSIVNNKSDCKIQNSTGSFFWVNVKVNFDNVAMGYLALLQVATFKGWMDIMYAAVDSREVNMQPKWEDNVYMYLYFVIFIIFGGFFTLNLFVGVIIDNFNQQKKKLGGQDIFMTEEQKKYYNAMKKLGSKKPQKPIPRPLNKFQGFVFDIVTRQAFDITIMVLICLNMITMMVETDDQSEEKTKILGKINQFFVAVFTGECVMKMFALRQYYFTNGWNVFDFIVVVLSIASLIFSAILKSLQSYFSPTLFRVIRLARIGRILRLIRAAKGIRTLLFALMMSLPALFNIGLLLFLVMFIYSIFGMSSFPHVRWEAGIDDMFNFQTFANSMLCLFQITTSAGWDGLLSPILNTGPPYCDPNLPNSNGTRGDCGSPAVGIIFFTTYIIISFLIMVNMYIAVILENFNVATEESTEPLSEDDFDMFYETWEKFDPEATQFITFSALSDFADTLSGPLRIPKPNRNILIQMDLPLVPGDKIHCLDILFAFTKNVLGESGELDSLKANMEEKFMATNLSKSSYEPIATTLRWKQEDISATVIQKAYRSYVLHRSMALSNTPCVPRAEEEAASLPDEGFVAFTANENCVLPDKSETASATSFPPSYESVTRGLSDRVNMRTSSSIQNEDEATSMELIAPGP
row,IC50 [nM],SMILES
1,0.005,"COc1c([C@@H]2C[C@](C)(C(F)(F)F)S[C@H]2C(=O)Nc2cccc(N=[N+]=[N-])c2)ccc(F)c1F [a-29-A, (2R,3S,5R)-N-(3-azidophenyl)-3-(3,4-difluoro-2-methoxyphenyl)-5-methyl-5-(trifluoromethyl)tetrahydrothiophene-2-carboxamide]"
2,0.69,"COc1c([C@@H]2C[C@](C)(C(F)(F)F)S[C@H]2C(=O)Nc2cccc(B3OC(=O)CN(C)CC(=O)O3)c2)ccc(F)c1F [a-35-A, (2R,3S,5R)-3-(3,4-difluoro-2-methoxyphenyl)-5-methyl-N-(3-(6-methyl-4,8-dioxo-1,3,6,2-diazaborinin-2-yl)phenyl)-5-(trifluoromethyl)tetrahydrothiophene-2-carboxamide]"

# Same assay, conditions: concentration of 1 nM, 0.001 µM
row,Inhibition rate (%),SMILES
1,80.7,"COc1c(C2CC(C)(C(F)(F)F)SC2C(=O)Nc2ccc(F)c(N=S(C)(C)=O)c2)ccc(F)c1F (centres unmarked) [a-22, 3-(3,4-difluoro-2-methoxyphenyl)-N-(3-((dimethyl(oxo)-16-sulfonamido)amino)-4-fluorophenyl)-5-methyl-5-(trifluoromethyl)tetrahydrothiophene-2-carboxamide]"

# Same assay, conditions: concentration of 1 nM, read-out: Inhibition rate %
row,inhibition at 0.001 µM [%],SMILES
1,83.9,"COc1c([C@@H]2C[C@](C)(C(F)(F)F)S[C@H]2C(=O)Nc2ccc3c(c2)B(O)NC3=O)ccc(F)c1F [Compound a-2, (2R,3S,5R)-3-(3,4-difluoro-2-methoxyphenyl)-N-(1-hydroxy-3-oxo-2,3-dihydro-1H-benzo[c][1,2]azaborol-6-yl)-5-methyl-5-(trifluoromethyl)tetrahydrothiophene-2-carboxamide]"
2,70.9,COc1c(C2CC(C)(C(F)(F)F)SC2C(=O)Nc2ccc(F)c(N=S(C)(C)=O)c2)ccc(F)c1F (centres unmarked) [a-15]
3,84.6,"COc1c([C@@H]2C[C@](C)(C(F)(F)F)S[C@H]2C(=O)Nc2cn(S(=O)(=O)C3CC3)nc2C)ccc(F)c1F [a-21-A, (2R,3S,5R)-N-(1-(cyclopropylsulfonyl)-3-methyl-1H-pyrazol-4-yl)-3-(3,4-difluoro-2-methoxyphenyl)-5-methyl-5-(trifluoromethyl)tetrahydrothiophene-2-carboxamide]"
4,56.5,"COc1c([C@@H]2C[C@](C)(C(F)(F)F)S[C@H]2C(=O)Nc2ccc3c(c2)C(=O)NC3=O)ccc(F)c1F [a-23-A, (2R,3S,5R)-3-(3,4-difluoro-2-methoxyphenyl)-N-(1,3-dioxoisoindol-5-yl)-5-methyl-5-(trifluoromethyl)tetrahydrothiophene-2-carboxamide]"
5,74.5,"COc1c([C@@H]2C[C@](C)(C(F)(F)F)S[C@H]2C(=O)Nc2cnnc(N=[N+]=[N-])c2)ccc(F)c1F [a-30-A, (2R,3S,5R)-(4-(3-(3,4-difluoro-2-methoxyphenyl)-5-methyl-5-(trifluoromethyl)tetrahydrothiophene-2-carboxamido)-6-azido)pyridazine]"
6,81.9,"COc1c([C@@H]2C[C@](C)(C(F)(F)F)S[C@H]2C(=O)Nc2ccc(F)c(N=[N+]=[N-])c2)ccc(F)c1F [a-31-A, (2R,3S,5R)-N-(3-azido-4-fluorophenyl)-3-(3,4-difluoro-2-methoxyphenyl)-5-methyl-5-(trifluoromethyl)tetrahydrothiophene-2-carboxamide]"

# Same assay, conditions: concentration of 10 nM, read-out: Inhibition rate %
row,inhibition at 0.01 µM [%],SMILES
1,85.3,"COc1c(C2CC(C)(C(F)(F)F)SC2C(=O)Nc2cccc(S(=O)(=O)NC#N)c2)ccc(F)c1F (centres unmarked) [Compound a-9, N-(3-(N-cyanosulfamoyl)phenyl)-3-(3,4-difluoro-2-methoxyphenyl)-5-methyl-5-(trifluoromethyl)tetrahydrothiophene-2-carboxamide]"
2,80.2,"COc1c([C@@H]2C[C@](C)(C(F)(F)F)S[C@H]2C(=O)Nc2ccc(=O)[nH]n2)ccc(F)c1F [a-3-A, (2R,3S,5R)-3-(3,4-difluoro-2-methoxyphenyl)-5-methyl-N-(6-oxo-1,6-dihydropyridazin-3-yl)-5-(trifluoromethyl)tetrahydrothiophene-2-carboxamide]"
3,76.9,"COc1c([C@@H]2C[C@](C)(C(F)(F)F)S[C@H]2C(=O)Nc2ccc3c(c2)B(O)OC3=O)ccc(F)c1F [a-6-A, (2R,3S,5R)-3-(3,4-difluoro-2-methoxyphenyl)-N-(1-hydroxy-3-oxo-1,3-dihydrobenzo[c][1,2]oxaborol-6-yl)-5-methyl-5-(trifluoromethyl)tetrahydrothiophene-2-carboxamide]"
4,88,"COc1c(C2CC(C)(C(F)(F)F)SC2C(=O)Nc2ccnc(N=S(C)(C)=O)c2)ccc(F)c1F (centres unmarked) [a-10, 3-(3,4-difluoro-2-methoxyphenyl)-N-(2-((dimethyl(oxo)-16-sulfanylidene)amino)pyridin-4-yl)-5-methyl-5-(trifluoromethyl)tetrahydrothiophene-2-carboxamide]"
5,65.5,"COc1c([C@@H]2C[C@](C)(C(F)(F)F)S[C@H]2C(=O)Nc2ccc(F)c(C/C(C#N)=C(\C)O)c2)ccc(F)c1F [a-17-A, (2R,3S,5R)-N-(3-((Z)-2-cyano-3-hydroxybut-2-enyl)-4-fluorophenyl)-3-(3,4-difluoro-2-methoxyphenyl)-5-methyl-5-(trifluoromethyl)tetrahydrothiophene-2-carboxamide]"
6,86.3,"COc1c([C@@H]2C[C@](C)(C(F)(F)F)S[C@H]2C(=O)Nc2cccc(NS(N)(=O)=O)c2)ccc(F)c1F [a-18-A, (2R,3S,5R)-3-(3,4-difluoro-2-methoxyphenyl)-5-methyl-N-(3-(sulfamoylamino)phenyl)-5-(trifluoromethyl)tetrahydrothiophene-2-carboxamide]"
7,96.5,"COc1c(C2CC(C)(C(F)(F)F)SC2C(=O)Nc2cccc(NS(=O)(=O)CCN)c2)ccc(F)c1F (centres unmarked) [a-25, N-(3-((2-aminoethyl)sulfonamido)phenyl)-3-(3,4-difluoro-2-methoxyphenyl)-5-methyl-5-(trifluoromethyl)tetrahydrothiophene-2-carboxamide]"
8,95.6,"COc1c([C@@H]2C[C@](C)(C(F)(F)F)S[C@H]2C(=O)Nc2ccc3c(c2)S(=O)(=O)NCN3)ccc(F)c1F [a-26-A, (2R,3S,5R)-3-(3,4-difluoro-2-methoxyphenyl)-N-(1,1-dioxide-3,4-dihydro-2H-benzo[e][1,2,4]thiadiazin-7-yl)-5-methyl-5-(trifluoromethyl)tetrahydrothiophene-2-carboxamide]"
9,80.6,"COc1c(C2CC(C)(C(F)(F)F)SC2C(=O)Nc2ccc3c(c2)S(=O)(=O)N=CN3)ccc(F)c1F (centres unmarked) [a-28-A, 7-(3-(3,4-difluoro-2-methoxyphenyl)-5-methyl-5-(trifluoromethyl)tetrahydrothiophene-2-carboxamido)-4H-benzo[e][1,2,4]thiadiazine-1,1-dioxide]"
10,83.7,"COc1c([C@@H]2C[C@](C)(C(F)(F)F)S[C@H]2C(=O)Nc2ccc3c(c2)S(=O)(=O)NC3=O)ccc(F)c1F [a-36-A, (2R,3S,5R)-3-(3,4-difluoro-2-methoxyphenyl)-N-(1,1-dioxide-3-oxo-2,3-dihydrobenzo[d]isothiazol-6-yl)-5-methyl-5-(trifluoromethyl)tetrahydrothiophene-2-carboxamide]"

row,SMILES,inhibition at 0.01 µM [%]
1,"COc1c(C2CC(C)(C(F)(F)F)SC2C(=O)Nc2ccnc(NO)c2)ccc(F)c1F (centres unmarked) [a-16, (4-(3-(3,4-difluoro-2-methoxyphenyl)-5-methyl-5-(trifluoromethyl)tetrahydrothiophene-2-carboxamido)-2-hydroxylamine)pyridine]",92.3
